# Data reported in patent US6737383B1, “Herbicidal oxadiazolidines” (priority 1999, dated 2004).
# How the values were obtained:
# winter barley = assay: Test E winter barley; assay type: in vivo, Hordeum vulgare; conditions: Preemergence
# blackgrass [1] = assay: Test B pre/postemergence blackgrass; assay type: in vivo, Alopecurus myosuroides
# Summary of the method: (§1)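 Test chemicals in a non-phytotoxic solvent mixture with surfactant were sprayed preemergence onto planted seeds and postemergence onto plants 2 to 18 cm tall (1- to 4-leaf stage). After twelve to sixteen days in a greenhouse, injury was visually rated against untreated controls from 0 (no effect) to 10 (complete control).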
# Italian ryegrass = assay: Test E Italian ryegrass; assay type: in vivo, Lolium multiflorum; conditions: Preemergence
# winter wheat [2] = assay: Test E winter wheat; assay type: in vivo, Triticum aestivum; conditions: Preemergence
# large crabgrass = assay: Test D large crabgrass; assay type: in vivo, Digitaria sanguinalis; conditions: Preemergence, 0 to 100 scale
# Summary of the method: (§2)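 Each weed species is planted in its own pot or compartment; preemergence doses go on the sandy loam surface within a day. The formulation is a surfactant-containing, non-phytotoxic solvent blend. Ratings come from visual comparison with untreated controls 14 to 21 days later, where 100 means complete control.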
# blackgrass [3] = assay: Test E blackgrass; assay type: in vivo, Alopecurus myosuroides; conditions: Preemergence
# crabgrass = assay: Test B pre/postemergence crabgrass; assay type: in vivo, Digitaria sanguinalis
# Summary of the method: as §1
# morningglory = assay: Test B pre/postemergence morningglory; assay type: in vivo, Ipomoea hederacea
# Summary of the method: as §1
# bamyardgrass = assay: Test B flood test barnyardgrass; assay type: in vivo, Echinochloa crus-galli
# Summary of the method: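 Plants were grown to the 2-leaf stage before treatment with test chemical, then held in a greenhouse for twelve to sixteen days. Injury was visually rated against untreated controls on a 0–10 scale, where 0 is no effect and 10 is complete control.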
# wild oat = assay: Test E wild oat; assay type: in vivo, Avena fatua; conditions: Preemergence
# purple nutsedge = assay: Test D purple nutsedge; assay type: in vivo, Cyperus rotundus; conditions: Preemergence, 0 to 100 scale
# Summary of the method: as §2
# winter wheat [4] = assay: Test E winter wheat; assay type: in vivo, Triticum aestivum; conditions: Postemergence
# Summary of the method: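 Postemergence: spray at 1–4 leaf stage, soil 60:40 sandy loam:potting mix; solvent + surfactant formulation; greenhouse 21–28 d; visual injury vs untreated controls.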
# Spanishneedles = assay: Test D Spanishneedles; assay type: in vivo, Bidens bipinnata; conditions: Preemergence, 0 to 100 scale
# Summary of the method: as §2
# green foxtail = assay: Test E green foxtail; assay type: in vivo, Setaria viridis; conditions: Preemergence
# common pursiane = assay: Test D common purslane; assay type: in vivo, Portulaca oleracea
# Summary of the method: as §2
# [5] = Rate 31 g/ha, 0 to 100 scale, 0 no effect, 100 complete control
# [6] = Rate 62 g/ha, 0 to 100 scale, 0 no effect, 100 complete control
# [7] = Rate 125 g/ha, 0 to 100 scale (0 no effect, 100 complete control)
# [8] = Postemergence, Rate 62 g/ha, scale 0 to 10, 0 is no effect, 10 is complete control
# [9] = Postemergence, Rate 125 g/ha, scale of 0 to 10 where 0 is no effect and 10 is complete control
# [10] = Postemergence, Rate 250 g/ha, scale 0 to 10, 0 no effect, 10 complete control
# [11] = Preemergence, Rate 62 g/ha, scale 0 to 10 (0 no effect, 10 complete control)
# [12] = Preemergence, Rate 125 g/ha, scale 0 to 10 (0 no effect, 10 complete control)
# [13] = Preemergence, Rate 250 g/ha, scale of 0 to 10 where 0 is no effect and 10 is complete control
# [14] = Preemergence, Rate 500 g/ha, scale 0 (no effect) to 10 (complete control)
# [15] = Rate 500 g/ha, Postemergence, scale 0 to 10, 0 no effect, 10 complete control
# [16] = Rate 16 g/ha, 0 no injury, 100 complete control
# [17] = Rate 32 g/ha, 0 no injury, 100 complete control
# [18] = Rate 64 g/ha, 0 no injury, 100 complete control
# [19] = Rate 125 g/ha, 0 no injury, 100 complete control
structure (smiles),measurement,setting,value
C=CCn1c(=O)on(C(=O)N(c2ccccc2)C(C)C)c1=O [Compound 93],"Plant response rating, Barley (winter)",winter barley; [5],20
same,"Plant response rating, Barley (winter)",winter barley; [6],50
same,"Plant response rating, Barley (winter)",winter barley; [7],50
same,"Plant response rating, Barley (winter)","winter barley; Rate 250 g/ha, 0 to 100 scale",50
same,Blackgrass plant response rating,blackgrass [1]; [8],7
same,Blackgrass plant response rating,blackgrass [1]; [9],8
same,Blackgrass plant response rating,blackgrass [1]; [10],8
same,Blackgrass plant response rating,blackgrass [1]; [11],9
same,"Plant response rating, Blackgrass",blackgrass [1]; [12],10
same,"Plant response rating, Blackgrass",blackgrass [1]; [13],10
same,Blackgrass plant response rating,blackgrass [1]; [14],10
same,Blackgrass plant response rating,blackgrass [1]; [15],8
same,"Plant response rating, I. Ryegrass",Italian ryegrass; [5],30
same,"Plant response rating, I. Ryegrass",Italian ryegrass; [6],50
same,"Plant response rating, I. Ryegrass",Italian ryegrass; [7],70
same,"Plant response rating, I. Ryegrass","Italian ryegrass; Rate 250 g/ha, 0 to 100 scale",100
same,"Plant response rating, Wheat (winter)",winter wheat [2]; [5],20
same,"Plant response rating, Wheat (winter)",winter wheat [2]; [6],40
same,"Plant response rating, Wheat (winter)",winter wheat [2]; [7],40
same,"Plant response rating, Wheat (winter)","winter wheat [2]; Rate 250 g/ha, 0 to 100 scale",100
same,"Plant response rating, Large crabgrass",large crabgrass; [16],90
same,"Plant response rating, Large crabgrass",large crabgrass; [17],98
same,"Plant response rating, Large crabgrass",large crabgrass; [18],98
same,"Plant response rating, Large crabgrass",large crabgrass; [19],100
same,"Plant response rating, Large crabgrass",large crabgrass; Rate 250 g/ha,100
same,"Plant response rating, Large crabgrass",large crabgrass; Rate 500 g/ha,100
same,"Plant response rating, Blackgrass",blackgrass [3]; [5],0
same,"Plant response rating, Blackgrass",blackgrass [3]; [6],50
same,"Plant response rating, Blackgrass",blackgrass [3]; [7],70
same,"Plant response rating, Blackgrass","blackgrass [3]; Rate 250 g/ha, 0 to 100 scale",75
same,Crabgrass plant response rating,crabgrass; [8],7
same,Crabgrass plant response rating,crabgrass; [9],8
same,Crabgrass plant response rating,crabgrass; [10],9
same,Crabgrass plant response rating,crabgrass; [11],7
same,"Plant response rating, Crabgrass",crabgrass; [12],9
same,"Plant response rating, Crabgrass",crabgrass; [13],9
same,Crabgrass plant response rating,crabgrass; [14],10
same,Crabgrass plant response rating,crabgrass; [15],9
same,Morningglory plant response rating,morningglory; [8],6
same,Morningglory plant response rating,morningglory; [9],10
same,Morningglory plant response rating,morningglory; [10],10
same,Morningglory plant response rating,morningglory; [11],0
same,"Plant response rating, Morningglory",morningglory; [12],0
same,"Plant response rating, Morningglory",morningglory; [13],3
same,Morningglory plant response rating,morningglory; [14],6
same,Morningglory plant response rating,morningglory; [15],10
same,Barnyardgrass plant response rating,bamyardgrass; [8],0
same,Barnyardgrass plant response rating,"bamyardgrass; Rate 125 g/ha, Postemergence section (flood test species), scale 0 to 10, 0 no effect, 10 complete control",0
same,Barnyardgrass plant response rating,"bamyardgrass; Rate 250 g/ha, headed Pre-emergence (flood test species), scale 0 to 10 (0 no effect, 10 complete control)",0
same,"Plant response rating, Barnyardgrass","bamyardgrass; Rate 500 g/ha, headed Pre-emergence (flood test species), scale 0 to 10 (0 no effect, 10 complete control)",0
same,Barnyardgrass plant response rating,"bamyardgrass; Rate 500 g/ha, listed under Postemergence (flood test species), scale 0 to 10, 0 no effect, 10 complete control",0
same,Barnyardgrass plant response rating,"bamyardgrass; Rate 1000 g/ha, Pre-emergence (as headed), scale 0 to 10",0
same,Barnyardgrass plant response rating,"bamyardgrass; Rate 2000 g/ha, Pre-emergence (as headed), scale 0 to 10, 0 no effect, 10 complete control",0
same,Barnyardgrass plant response rating,"bamyardgrass; flood test, listed under Postemergence, Rate 250 g/ha, scale 0 to 10, 0 no effect, 10 complete control",0
same,"Plant response rating, Wild oat",wild oat; [5],40
same,"Plant response rating, Wild oat",wild oat; [6],50
same,"Plant response rating, Wild oat",wild oat; [7],60
same,"Plant response rating, Purple nutsedge",purple nutsedge; [16],0
same,"Plant response rating, Purple nutsedge",purple nutsedge; [17],0
same,Purple nutsedge plant response rating,purple nutsedge; [18],20
same,Purple nutsedge plant response rating,purple nutsedge; [19],0
same,"Plant response rating, Purple nutsedge",purple nutsedge; Rate 250 g/ha,30
same,"Plant response rating, Purple nutsedge",purple nutsedge; Rate 500 g/ha,100
same,"Plant response rating, Wheat (winter)",winter wheat [4]; [5],0
same,"Plant response rating, Wheat (winter)","winter wheat [4]; Rate 62 g/ha, 0 to 100 scale",20
same,"Plant response rating, Wheat (winter)","winter wheat [4]; Rate 125 g/ha, 0 to 100 scale",65
same,"Plant response rating, Wheat (winter)","winter wheat [4]; Rate 250 g/ha, 0 to 100 scale (0 no effect, 100 complete control)",0
same,"Plant response rating, Spanishneedles",Spanishneedles; [16],0
same,"Plant response rating, Spanishneedles",Spanishneedles; [17],0
same,Spanishneedles plant response rating,Spanishneedles; [18],0
same,Spanishneedles plant response rating,Spanishneedles; [19],10
same,"Plant response rating, Spanishneedles",Spanishneedles; Rate 500 g/ha,45
same,"Plant response rating, Green foxtail",green foxtail; [5],30
same,"Plant response rating, Green foxtail",green foxtail; [6],70
same,"Plant response rating, Green foxtail",green foxtail; [7],80
same,"Plant response rating, C. purslane","common pursiane; Rate 16 g/ha; Preemergence; 0 to 100 scale, 0 no injury, 100 complete control",0
same,"Plant response rating, C. purslane","common pursiane; Rate 32 g/ha; Preemergence; 0 to 100 scale, 0 no injury, 100 complete control",0
same,"Plant response rating, C. purslane","common pursiane; Rate 64 g/ha, Preemergence; 0 to 100 scale, 0 no injury, 100 complete control",0
same,"Plant response rating, C. purslane","common pursiane; Rate 125 g/ha, Preemergence; 0 to 100 scale, 0 no injury, 100 complete control",0
same,"Plant response rating, C. purslane",common pursiane; Rate 250 g/ha; Preemergence; 0 to 100 scale,0
same,"Plant response rating, C. purslane","common pursiane; Rate 500 g/ha, Preemergence; 0 to 100 scale",80
same,"Plant response rating, C. purslane",common pursiane; Rate 500 g/ha; Preemergence; 0 to 100 scale,0
